Reference: the NIST ThermoML archive (doi:10.1016/j.jct.2004.09.014)
Numbers after ± are expanded uncertainties.

Key:
[1] = 101.3 kPa, Liquid
[2] = xn = mol fraction of the nth substance listed; conditions: 101.3 kPa, Liquid

SMILES	mass density ([1]; 293.15 K) [kg/m3]	mass density ([1]; 298.15 K) [kg/m3]	mass density ([1]; 303.15 K) [kg/m3]	mass density ([1]; 308.15 K) [kg/m3]	mass density ([1]; 313.15 K) [kg/m3]	also measured
COCCOCCO [2-(2-methoxyethoxy)ethanol]	1020.8 ± 1.4	1016.4 ± 1.4	1011.83 ± 1.5	1007.69 ± 1.5	1003.22 ± 1.5	
COCCOCCOCCO [2-[2-(2-methoxyethoxy)ethoxy]ethanol]	1047.29 ± 1.9	1042.97 ± 1.9	1038.65 ± 1.9	1034.33 ± 1.9	1030.01 ± 2	
CCOC(C)(C)C [2-ethoxy-2-methylpropane]	741.11 ± 0.61	735.59 ± 0.65	730.85 ± 0.69	725.98 ± 0.73	720.69 ± 0.77	
CCOC(C)(C)C [2-ethoxy-2-methylpropane] + COCCOCCO						mass density ([2]; 293.15 K, x1 = 1): 741.11 ± 0.61 kg/m3; mass density ([2]; 298.15 K, x1 = 1): 735.59 ± 0.65 kg/m3; mass density ([2]; 303.15 K, x1 = 1): 730.85 ± 0.69 kg/m3; mass density ([2]; 308.15 K, x1 = 1): 725.98 ± 0.73 kg/m3; mass density ([2]; 313.15 K, x1 = 1): 720.69 ± 0.77 kg/m3
CCOC(C)(C)C [2-ethoxy-2-methylpropane] + COCCOCCOCCO						mass density ([2]; 293.15 K, x1 = 1): 741.11 ± 0.61 kg/m3; mass density ([2]; 298.15 K, x1 = 1): 735.59 ± 0.65 kg/m3; mass density ([2]; 303.15 K, x1 = 1): 730.85 ± 0.69 kg/m3; mass density ([2]; 308.15 K, x1 = 1): 725.98 ± 0.73 kg/m3; mass density ([2]; 313.15 K, x1 = 1): 720.69 ± 0.77 kg/m3
COCCO [2-methoxyethan-1-ol]	964.88 ± 1	960.29 ± 1.1	955.76 ± 1.1	951.1 ± 1.1	946.54 ± 1.1	
COCCO [2-methoxyethan-1-ol] + CCOC(C)(C)C						mass density ([2]; 293.15 K, x2 = 0): 964.88 ± 1 kg/m3; mass density ([2]; 298.15 K, x2 = 0): 960.29 ± 1.1 kg/m3; mass density ([2]; 303.15 K, x2 = 0): 955.76 ± 1.1 kg/m3; mass density ([2]; 308.15 K, x2 = 0): 951.1 ± 1.1 kg/m3; mass density ([2]; 313.15 K, x2 = 0): 946.54 ± 1.1 kg/m3
